Assay: Displacement of [3H]gabapentin from alpha2-delta subunit of calcium channel

SMILES	IC50
O=C(O)C[C@]12CCCC[C@H]1NC2	> 10 µM
O=C(O)[C@@H]1CNCC12CCCCC2	> 10 µM
O=C(O)C1NCC12CCCCC2 (configuration not stated)	1.5 µM
O=C(O)C[C@]12CCCC[C@H]1CNC2	> 10 µM
O=C(O)C1CCNCC12CCCCC2 (configuration not stated)	> 10 µM
O=C(O)[C@H]1CNCC12CCCCC2	0.12 µM

From ChEMBL document CHEMBL1131835, “Synthesis and biological evaluation of conformationally restricted Gabapentin analogues” (Bioorg Med Chem Lett, 1999)
